Entries after “also recorded” stand apart in the source; their conditions may differ.
Legend:
[1] = test system: rat hippocampal neurons expressing P301L mutant eGFP-tau; assay: P301L mutant tau mislocalization to dendritic spines, kinase inhibitor treatment; assay type: cell-based
Description: FIG. 5A. […] FIG. 5B. […] FIG. 5C. […] FIG. 5D. […] FIG. 5E.

[2] = test system: primary cultured rat hippocampal neurons; assay: Cell death of cultured neurons under kinase inhibitor treatment; assay type: cell-based; conditions: Sprague-Dawley, 24 h
Procedure: Roscovitine and CHIR99021 were purchased from Sigma-Aldrich (St. Louis, Mo.) and were diluted in DMSO to four 1000× concentration aliquots for ultimate concentrations in neurobasal medium of […]. Primary cultured rat hippocampal neurons transfected with dsRed and eGFP-P301L-tau were treated with one of four 1000× aliquots or DMSO vehicle on DIV 20-22. Treated cells were incubated for 24 hours prior to imaging on DIV 21-23. Cell death was visually assessed under differential interference contrast (DIC) for decreased cell density, lost soma adhesion, gross qualitative neurite retraction. If evidence of cell death was observed under DIC, cells were fixed in 4% sucrose and 4% paraformaldehyde in PBS and stained with 300 nM DAPI in PBS. DAPI stained cells were analyzed under fluorescent microscopy for nuclear pyknosis and karyorrhexis; dsRed expressing cells were analyzed for spine loss. If no cell death was evident under DIC, live fluorescent images were acquired and analyzed as above.

[3] = test system: cultured G2-3 (A53T αS) mouse hippocampal neurons expressing eGFP-WT tau; assay: A53T αS-dependent mislocalization of tau to dendritic spines, GSK3β inhibition; assay type: cell-based; conditions: 3 μM, applied at 16 DIV, imaged at 21 DIV
[4] = test system: low density hippocampal neurons from G2-3 mice; assay: GluA1 surface expression in dendritic spines of G2-3 neurons; assay type: cell-based, mouse
Description: FIG. 21A. Photomicrographs of neurons from G2-3 mice and their TgNg littermates without (top two panels) and with treatment of CHIR-99021 (bottom two panels). As previously described (Liao et al. 1999 Nature Neuroscience 2(1): 37-43), live neurons were stained for N-GluA1 antibodies (green), fixed, permeablized, and stained for PSD-95 (red). Arrows indicate tightly clustered surface N-GluA1 colocalized with PSD-95, whereas weak, non-specific N-GluR1 immunoreactivity appeared along the dendritic shafts as diffuse staining rather than distinct clusters in G2-3 neurons (arrow heads). The diffuse staining is likely due to the presence of extrasynaptic AMPA receptors (Newpher and Ehlers 2008 Neuron 58: 472-97). […] Scale bar: […]. FIG. 21B. GluA1 surface fluorescence in PSD-95 immunoreactive spines was normalized to dendritic fluorescence. […] For all n=8; data are expressed as mean±s.e.m. […]
Cultured neurons were fixed and permeabilized successively with 4% paraformaldehyde, 100% methanol, and 0.2% Triton X-100 (Lin et al. 2009 Neuropsychopharmacology 34(9):2097-111). […] In FIG. 4A-FIG. 4B, the number of synaptophysin clusters and their colocalization with boutons of neurons expressing eGFP or eGFP-labeled αS were automatically counted using ImageJ software (available on the world wide web at imagej.nih.gov/ij/). […] DAPI stained nuclei were manually counted from wide-field photomicrographs. […]

[5] = test system: cultured rat hippocampal neurons expressing A53T αS; assay: AMPA receptor mEPSCs in neurons transfected with A53T αS; assay type: cell-based; conditions: GSK3β inhibition with CHIR
[6] = test system: rat hippocampal neurons expressing GFP-tagged wild-type human tau; assay: Mislocalization of tau to dendritic spines caused by Aβ oligomers; assay type: cell-based; conditions: Aβ oligomers 0.1 μM with AP peptide 1 μM, 3 days
Procedure: FIG. 11A Cultured 21 days in vitro (DIV) rat hippocampal neurons expressing DsRed (left panels) and GFP-tagged wild-type human tau (middle panels) were untreated (top panels), treated with Aβ oligomers alone (0.1 μM) (middle panels), or treated with Aβ oligomers (0.1 μM) with AP peptide (1 μM) (bottom panels) for 3 days.

[7] = test system: rat hippocampal neurons expressing GFP-WT-tau; assay: Tau missorting to dendritic spines in mechanically injured (stretched) neurons, TBI model; assay type: cell-based; conditions: 10 stretches, 2% strain; AP peptide 1 μM
Procedure: FIG. 12A. Representative live images of cultured rat hippocampal neurons that had been co-transfected with plasmids of DsRed (left lane; a red fluorescence protein to label dendritic spines) and green fluorescence protein (GFP)-tagged wild-type tau (GFP-WT-tau; middle lane) with overlay images on the right lane 2 days after the delivery of a mechanical protocol. The neurons were cultured on a plastic membrane and were stretched by a computer-controlled mechanical device, as described in Example 2 (10 stretches; 2% mechanical strain; 1 second interval between stretches) in 21 days in vitro (DIV). Arrows denote dendritic spines that contain tau and triangles denote dendritic spines devoid of tau. FIG. 12B. […] FIG. 12C. […] ANOVA was used in FIG. 12B and FIG. 12C; *** indicates p<0.001.
In a tauopathy model for traumatic brain injuries (TBI) based on the model of Hemphill et al. 2011 PLoS One. 6(7):e2289), mechanical injuries to neurons induce tau missorting to dendritic spines (FIG. 12). The methods of Hemphill et al. were modified such that plasmids encoding GFP-tagged tau were introduced into neurons, allowing detection of tau abnormalities as well as tau-mediated synaptic deficits. Briefly, neurons were plated onto medical grade silicone elastomer membranes (0.010 inch NRV, Specialty Manufacturing, Inc., Saginaw, Mich.) and glued inside a reducing well. […]

[8] = test system: neurons expressing GFP-tagged P301L-tau; assay: Missorting of tau to dendritic spines in neurons expressing P301L mutant tau, peptide treatment; assay type: cell-based, rat; conditions: for proportion of dendritic spines that contain tau (tau mis-sorting caused by P301L mutation): 21 DIV neurons, GFP-tagged P301L-tau, peptide 1 μM for 3 days
Procedure: FIG. 10A-FIG. 10B show missorting of tau to dendritic spines caused by P301L mutation is blocked by Peptide 1 and Peptide 2 but not Peptide 3. FIG. 10A 21 days in vitro (DIV) neurons expressing DsRed (left panels) and GFP-tagged P301L-tau (middle panels) were treated with AP peptide (Peptide 2; 1 μM) for 3 days (top panels: untreated; bottom panels: treated).
Transfected cells were continually bathed in neurobasal media and were passively perfused with medical-grade 95% O2-5% CO2. Micrographs were taken on a Nikon epifluorescent inverted microscope with 60× oil lens with a computerized focus motor at DIV 21-23. All digital images were processed using METAMORPH Imaging System (Universal Imaging Corporation, Molecular Devices, San Jose, Calif.). Images were taken as 15 plane stacks at 0.5 micron increments, processed by deconvolution to the nearest planes, and averaged against other stacked images. A dendritic spine was defined as having an expanded head diameter, greater than 50% larger in diameter than the neck. The number of spines per neuron were counted and normalized to a […] length of dendritic shaft. […]

[9] = 500 nM chir99021 and 500 nM roscovitine in combination
[10] = either drug alone, concentrations up to 5 μM

Compound: CC[C@H](CO)Nc1nc(NCc2ccccc2)c2ncn(C(C)C)c2n1 [roscovitine]
- percentage of eGFP-containing spines [1, 9]: reduced the percentage of eGFP-containing spines to that of wild type eGFP-tau
- percentage of eGFP-containing spines [1, 10]: neither drug alone, at concentrations up to 5 μM, lowered the percentage of eGFP-containing spines to control levels

Compound: Cc1c[nH]c(-c2cnc(NCCNc3ccc(C#N)cn3)nc2-c2ccc(Cl)cc2Cl)n1 [CHIR99021]
- concentration that killed the neurons [2]: above 5 μM
- drug concentration at which overt cell death was observed [2]: exceeded 5 M
- increase in dendritic spines containing mislocalized eGFP-tau in G2-3 neurons [3]: blocked
- surface N-GluA1 synaptic localization (colocalization with PSD-95) ([4]; listed as CHIR): strong colocalization of PSD-95 and N-GluA1 clusters is restored
- surface N-GluA1 synaptic localization (colocalization with PSD-95) ([4]; listed as CHIR-99021): restored surface N-GluA1 synaptic localization
- percentage of eGFP-containing spines [1, 9]: reduced the percentage of eGFP-containing spines to that of wild type eGFP-tau
- percentage of eGFP-containing spines [1, 10]: neither drug alone, at concentrations up to 5 μM, lowered the percentage of eGFP-containing spines to control levels
- postsynaptic deficits (mEPSC amplitude) caused by A53T αS transfection [5]: completely reverse

Compound: H2N-GRKKRRQRRRPQDHGAEIVYKAPVVSGDTAPRHLSNVS ST-OH (H-GRKKRRQRRRPQDHGAEIVYKAPVVSGDTAPRHLSNVSST-OH) [Peptide 2]
- proportion of dendritic spines that contain tau, increase caused by Aβ oligomers [6]: blocked
- proportion of dendritic spines that contain tau, increase caused by Aβ oligomers ([6]; listed as AP peptide): block tau mislocalization; also recorded: can block tau missorting to dendritic spines
- proportion of dendritic spines containing tau after mechanical stretches [7]: blocked tau missorting to dendritic spines
- proportion of dendritic spines that contain tau (tau mis-sorting caused by P301L mutation) [8]: block mislocalization of tau
- proportion of dendritic spines that contain tau (tau mis-sorting caused by P301L mutation) ([8]; listed as AP peptide): blocked tau mis-sorting; also recorded: significantly decreased
- strength of effect on tau mis-sorting compared with WT peptide ([8]; neurons expressing P301L mutant tau): stronger effect

Compound: H2N-GRKKRRQRRRPQDHGAEIVYKEPVVSGDTEPRHLSNVS ST-OH (H-GRKKRRQRRRPQDHGAEIVYKEPVVSGDTEPRHLSNVSST-OH) [Peptide 3]
- proportion of dendritic spines that contain tau (tau mis-sorting caused by P301L mutation) [8]: did not block
- proportion of dendritic spines that contain tau (tau mis-sorting caused by P301L mutation) ([8]; listed as EP Peptide): No decrease
- proportion of dendritic spines that contain tau (tau mis-sorting caused by P301L mutation) ([8]; listed as EP peptide): did not block tau mis-sorting

Source: patent US20190263867A1, “TAU PEPTIDES, METHODS OF MAKING, AND METHODS OF USING” (priority 2018, published 2019)
